Measurements: patent US11548899B2, “Fused 1,4-oxazepines and related analogs as BET bromodomain inhibitors” (THE REGENTS OF THE UNIVERSITY OF MICHIGAN, priority 2016, dated 2023)
“And” between values parts separate entries of the source, which are not always exact repeats. Identical values can stand only once. Like-named read-outs stand apart in the source and are kept apart here.

Assays:
[1] = test system: RS4-11; experiment: Cell growth inhibition, 4-day proliferation assay, RS4-11; type: cell-based; conditions: read-out: Cell Viability (IC50, μM) RS4-11
Description: (§1) The effect of representative Compounds of the Disclosure on cell viability was determined in a 4-day proliferation assay. Cells were maintained in the appropriate culture medium with 10% FBS at 37° C. and an atmosphere of 5% CO2. All the cell lines were used within three months of thawing fresh vials.
(§2) Cells were seeded in 96-well flat bottom (Corning COSTAR, Corning, N.Y., cat #3595) or white opaque cell culture plates (BD Falcon, cat #353296) at a density of 3,000-10,000 cells/well in 75 μl of culture medium. Compounds were serially diluted in the appropriate medium, and 75 μl of the diluted compounds were added to the appropriate wells of the cell plate. After the addition of compounds, the cells were incubated at 37° C. in an atmosphere of 5% CO2 for 4 days. Cell viability was determined using the CellTiter-Glo® Luminescent Cell Viability Assay Kit (Promega, Madison, Wis.) for leukemia cells and WST (2-(2-methoxy-4-nitrophenyl)-3-(4-nitrophenyl)-5-(2,4-disulfophenyl)-2H-tetrazolium, monosodium salt) Cell Counting-8 Kit (Dojindo Molecular Technologies, Inc., Rockville, Md.) for adhenrent cells according to the manufacturers' instructions. […]
(§3) For CellTiter-Glo assay (suspension cells), 100 μl of CellTiter-Glo® Reagent was added to each well, and then the plates were incubated at room temperature for 10-20 minutes. The luminescent signal was measured using a Tecan Infinite M1000 multimode microplate reader (Tecan, Morrisville, N.C.). The readings were normalized to the DMSO-treated cells and the IC50 was calculated by nonlinear regression (four parameters sigmoid fitted with variable slope, least squares fit, and no constraint) analysis using the GraphPad Prism 5 software. See US 2014/0256706.

[2] = molecular target: T1, recombinant BRD4 BD2 (Homo sapiens, UniProt O60885); experiment: Competitive fluorescence-polarization (FP) binding assay, BRD4 BD2; conditions: protein 6 nM, probe 1.5 nM
T1 construct: recombinant BRD4 BD1 and BRD4 BD2 proteins
Description: Fluorescence Polarization (FP) competitive binding studies were carried out using a FAM labeled fluorescent probe, see Cpd. […] Equilibrium dissociation constants (Kd) values of the fluorescent probe to BRD4 BD1 and BD2 proteins were determined from protein saturation experiments by monitoring the total fluorescence polarization of mixtures composed with the fluorescent probe at a fixed concentration and proteins with increasing concentrations up to full saturation. Serial dilutions of testing proteins were mixed with the fluorescent probe to a final volume of 200 μl in the assay buffer (100 mM phosphate buffer, pH=6.5, 0.01% Triton X-100 (Sigma, 282103) being added right before assays). Final fluorescent probe concentration was 1.5 nM for both proteins. Plates were incubated at room temperature for 30 minutes with gentle shaking to assure equilibrium. FP values in millipolarization units (mP) were measured using the Infinite M-1000 plate reader (Tecan U.S., Research Triangle Park, N.C.) in Microfluor 1 96-well, black, round-bottom plates (Thermo Scientific, Waltham, Mass.) at an excitation wavelength of 485 nm and an emission wavelength of 530 nm.
The IC50 and Ki values of compounds were determined in a competitive binding experiment. […] Mixtures of 10 μl of the tested compounds in assay buffer with 40% Ethylene Glycol and 190 μl of preincubated protein/probe complex solution in the assay buffer (100 mM potassium phosphate, pH 6.5, 0.01% Triton X-100) were added into assay plates which were incubated at room temperature for 30 minutes with gentle shaking. Final concentrations of proteins were 10 and 6 nM in assays for BRD4 BD1 and BD2, respectively. Final probe concentration is 1.5 nM in both assays. […] FP values were measured as described above. IC50 values were determined by nonlinear regression fitting of the competition curves.

[3] = molecular target: T2, recombinant BRD4 BD1 (Homo sapiens, UniProt O60885); experiment: Competitive fluorescence-polarization (FP) binding assay, BRD4 BD1; conditions: FP competitive binding; protein 10 nM, probe 1.5 nM; read-out: IC50 (nM) BRD4 BD1
T2 construct: recombinant BRD4 BD1 and BRD4 BD2 proteins
Description: Fluorescence Polarization (FP) competitive binding studies were carried out using a FAM labeled fluorescent probe, see Cpd. […] Equilibrium dissociation constants (Kd) values of the fluorescent probe to BRD4 BD1 and BD2 proteins were determined from protein saturation experiments by monitoring the total fluorescence polarization of mixtures composed with the fluorescent probe at a fixed concentration and proteins with increasing concentrations up to full saturation. […] Plates were incubated at room temperature for 30 minutes with gentle shaking to assure equilibrium.
The IC50 and Ki values of compounds were determined in a competitive binding experiment. […] Mixtures of 10 μl of the tested compounds in assay buffer with 40% Ethylene Glycol and 190 μl of preincubated protein/probe complex solution in the assay buffer (100 mM potassium phosphate, pH 6.5, 0.01% Triton X-100) were added into assay plates which were incubated at room temperature for 30 minutes with gentle shaking. Final concentrations of proteins were 10 and 6 nM in assays for BRD4 BD1 and BD2, respectively. […] FP values were measured as described above. IC50 values were determined by nonlinear regression fitting of the competition curves.

[4] = test system: MOLM-13; experiment: Cell growth inhibition, 4-day proliferation assay, MOLM-13; type: cell-based; conditions: read-out: Cell Viability (IC50, μM) MOLM-13
Description: as §1, §2, §3

[5] = Homo sapiens, RS4-11, 96 h, 4 days incubation, RS4-11 cells
[6] = 4 days incubation, MOLM-13 cells
[7] = Homo sapiens, MOLM-13, 96 h, 4 days incubation, MOLM-13 cells
[8] = 4 days incubation, RS4-11 cells

SMILES	IC50 [1, 5] [µM]	IC50 [2]	IC50 [3]	IC50 [4, 6] [µM]	IC50 [4, 7] [µM]	IC50 [1, 8] [µM]	IC50 ([1]; Homo sapiens, RS4-11, 96 h) [µM]	IC50 ([4]; Homo sapiens, MOLM-13, 96 h) [µM]
Cc1sc2c(c1Cc1ccccc1)COC(C)c1nnc(C)n1-2 (centres unmarked) [Cpd. No. 109, 3-benzyl-2,6,9-trimethyl-4H,6H-thieno[2,3-e][1,2,4]triazolo[3,4-c][1,4]oxazepine]	1	125 nM and 120 nM	99.6 nM and 93.8 nM	0.81	1.1	–	–	–
Cc1sc2c(c1Cc1ccc(F)cc1)COCc1nnc(C)n1-2 [Cpd. No. 103, 3-(4-fluorobenzyl)-2,9-dimethyl-4H,6H-thieno[2,3-e][1,2,4]triazolo[3,4-c][1,4]oxazepine]	1	213 nM	115 nM and 70.4 nM	0.67	1.1	0.95	–	–
Cc1sc2c(c1Cc1ccccc1)CNCc1nnc(C)n1-2 [Cpd. No. 15, 3-benzyl-2,9-dimethyl-5,6-dihydro-4H-thieno[3,2-f][1,2,4]triazolo[4,3-a][1,4]diazepine]	2.7	102 nM and 111 nM	531 nM and 751 nM	–	2	–	–	–
Cc1nnc2n1-c1sc(C#Cc3ccc(N)nc3)c(Cc3ccccc3)c1COC2 [Cpd. No. 89, 5-((3-benzyl-9-methyl-4,6-dihydrothieno[2,3-e][1,2,4]triazolo[3,4-c][1,4]oxazepin-2-yl)ethynyl)pyridin-2-amine]	0.62	315 nM	8.7 nM	–	0.28	–	–	–
Cc1sc2c(c1Nc1cc(C3CC3)nn1C)COCc1nnc(C)n1-2 [Cpd. No. 7, N-(3-cyclopropyl-1-methyl-H-pyrazol-5-yl)-2,9-dimethyl-4H,6H-thieno[2,3-e][1,2,4]triazolo[3,4-c][1,4]oxazepin-3-amine]	4.2	1160 nM and 1260 nM	171 nM and 311 nM	–	2.8	–	–	–
Cc1sc2c(c1Cc1ccccc1)CN(C(=O)OCc1ccccc1)[C@@H](C)c1nnc(C)n1-2 [Cpd. No. 12, benzyl (S)-3-benzyl-2,6,9-trimethyl-4H-thieno[3,2-f][1,2,4]triazolo[4,3-a][1,4]diazepine-5(6H)-carboxylate]	4.7	328 nM and 379 nM	371 nM	–	4	–	–	–
Cc1sc2c(c1Cc1ccccc1)CN(C(=O)OCc1ccccc1)Cc1nnc(C)n1-2 [Cpd. No. 14, benzyl 3-benzyl-2,9-dimethyl-4H-thieno[3,2-f][1,2,4]triazolo[4,3-a][1,4]diazepine-5(6H)-carboxylate]	2.4	118 nM and 145 nM	85 nM and 112 nM	–	1.9	–	–	–
Cc1nnc2n1-c1sc(C#Cc3cnn(C)c3)c(Cc3ccccc3)c1CO[C@H]2C [Cpd. No. 85, (S)-3-benzyl-6,9-dimethyl-2-((1-methyl-1H-pyrazol-4-yl)ethynyl)-4,6-dihydrothieno[2,3-e][1,2,4]triazolo[3,4-c][1,4]oxazepine]	0.14	48.3 nM and 60.3 nM	7.3 nM and 8.1 nM	0.1	0.16	0.12	–	–
Cc1sc2c(c1Nc1ccccc1)COCc1nnc(C)n1-2 [Cpd. No. 6, 2,9-dimethyl-N-phenyl-4H,6H-thieno[2,3-e][1,2,4]triazolo[3,4-c][1,4]oxazepin-3-amine]	–	346 nM and 457 nM	317 nM and 629 nM	–	–	–	4.5	> 5
